One may read the IC50 as the point on the concentration scale where inhibition reaches its midpoint. The term viability denotes the share of living cells, or the viability signal relative to a control. A lower viability goes with a greater loss of cells. As usually defined, the inhibition is the relative decrease from the control value, in per cent. Read a high inhibition as a strong effect.

Experimental findings from patent US9850276B2, “Bidentate-binding modulators of LRRK2 and JNK kinases” (THE SCRIPPS RESEARCH INSTITUTE, priority 2013, dated 2017) are described below.

Several values for one entry are separate records, joined by “and”; a condition that tells them apart may be missing. Equal entries are not always repeated. Where two headings read alike, the source gives them in different places. Where a SMILES comes first, the peptide text is derived from it. The star is where a group is joined. X1 = O=C(NCCCCN*)c1ccc(-c2n[nH]c3ccccc23)cc1; X2 = O=C(NCCCN*)c1ccc(-c2n[nH]c3ccccc23)cc1

For one assay, the target named is JNK3 (Homo sapiens, UniProt P53779). Nature of the assay: JNK3 enzyme activity assay. Format: biochemical. The settings on record: 2-3 determinations; SP600125 from 10 measurements; * n = 2-4.
The next assay deals with T1, JNK3 39-422 (Homo sapiens, UniProt P53779).
T1 construct: with JNK3 39-422 and measuring fluorescence polarization (FP) changes
As to the kind of experiment: JIP FP displacement assay (TAMRA-JIP-11-mer peptide, fluorescence polarization). Format: binding. The following applies: 2-3 determinations; * n = 2-4. The text has this:
The biochemical assay for JIP displacement is centered on utilizing a TAMRA-JIP-11-mer peptide (TAMRA-RPKRPTTLNLF) with JNK3 39-422 and measuring fluorescence polarization (FP) changes in the presence and absence of small molecule inhibitors. This assay has been established in 96-well and 384-well format in our labs. Unlabeled JIP-peptide (RPKRPTTLNLF, SEQ ID:1) and compound 2 were used as positive controls.
A general note: Polarisation of emitted light reports the rotation of a fluorescent probe.

In a further assay the target is wild-type LRRK2 (Homo sapiens, UniProt Q5S007). As to the kind of experiment: LRRK2 enzyme assay (titration). In kind it is biochemical. The text has this:
(§1) Strong inhibition of LRRK2 by compound 6 was also found.

The subject of assay [1] is c-jun phosphorylation in H9C2 cardiomyocyte cells. As to the kind of experiment: In-cell Western detection of c-Jun phosphorylation. In kind it is cell-based. The settings on record: for IC50: n = 4, read-out: Cell-based p-c-Jun inhibition (IC50). The protocol:
The IC50 was calculated to be 2.8±0.5 μM. Standard error is given.
(§2) To analyze the cell activity of compound 6 and its analogs an In-cell Western detection assay was set up where phosphorylation of c-Jun was monitored. […] This finding was corroborated by Western blot analysis in H9C2 and N2a cells (FIG. 7). Considering the reasonably high biochemical kinase selectivity (coupled with its low μM cell potency), compound 6 is believed to be a good in vitro probe molecule for studying the biology and the signal pathways related to JNK/LRRK2 (and mutant LRRK2s).
Table 2, above, presents the inhibition of c-Jun phosphorylation in H9c2 cells for six JNK bidentate inhibitors, compounds 5, 6, 9, 10, 12, and 13.

The next assay deals with JNK1 (Homo sapiens, UniProt P45983). As to the kind of experiment: JNK1 enzyme assay. Format: biochemical. The following applies: 2-3 determinations; SP600125 from 10 measurements.
Assay [2] relates to infarct size in rat hearts. As to the kind of experiment: I/R MI rat model, 30 minutes ischemia and 24 hours reperfusion. In kind it is in vivo. The following applies: 40 mg/kg 3-aminobenzamide; p=0.048. The protocol:
The in vivo efficacy of SR-3306 in anesthetized rats after 30 minutes ischemia and 24 hours reperfusion was evaluated.

In a further assay the target is LRRK2-G2019S (Homo sapiens, UniProt Q5S007, G2019S). Nature of the assay: LRRK2-G2019S enzyme assay (titration). In kind it is biochemical.
Description: as §1

In assay [3] the test system is SHSY5Y cells transfected with LRRK2:G2019S. Nature of the assay: LRRK2:G2019S-induced ROS generation (Mitosox fluorescence). Format: cell-based, human. The settings on record: 1 μM or 10 μM compound; p<0.05. The text has this:
(§3) FIGS. 5A, 5B, and 5C, depict the results of assays to determine the protection of LRRK2:G2019S-induced mitochondrial dysfunction and cell death by compound 6. Significance between LRRK2:WT and LRRK2:G2019S are indicated by a single asterisk (p<0.05) (*), while differences between cells expressing LRRK2:G2019S and compound 6 treated cells expressing LRRK2:G2019S are indicated by a double asterisk (p<0.05) (**). Error bars denote standard deviation.
(§4) We next tested if compound 6 was potent in cell-based functional assays that measured reactive oxygen species (ROS) generation, mitochondrial membrane potential (MMP), and cell viability. We had previously shown that JNK inhibition had significant effects on all of these mitochondrial functional parameters in HeLa cells. FIG. 5 presents the effects that compound 6 had on all of these measures in the human dopaminergic SHSY5Y cell line. […] Finally, LRRK2:G2019S-induced cell loss was measured showing ˜50% less viable cells (FIG. 5C). In the presence of 10 μM compound 6, cell viability returned to >95% (p<0.05).

Assay [4] has the same test system. As to the kind of experiment: LRRK2:G2019S-induced decrease in mitochondrial membrane potential. The settings on record: 10 μM compound. In kind it is cell-based, human.
Description: as §3, §4

For assay [5] the test system is unchanged. As to the kind of experiment: LRRK2:G2019S-induced cell loss (cell viability). Format: cell-based. The following applies: Homo sapiens, SH-SY5Y; 10 μM compound; p<0.05.
Description: as §3, §4

Another assay relates to JNKs. As to the kind of experiment: Enzyme inhibition profiling, panel of 21 kinases. The settings on record: 10 μM inhibitor concentration. In kind it is biochemical.
For the next assay, the target named is LRRK2 (Homo sapiens, UniProt Q5S007). As to the kind of experiment: Enzyme inhibition profiling, panel of 21 kinases. Format: biochemical. The following applies: 10 μM inhibitor concentration.
For another assay, the target named is CLK1 (Homo sapiens, UniProt P49759). As to the kind of experiment: Enzyme inhibition profiling, panel of 21 kinases. Format: biochemical.
A further assay relates to 96 kinases. As to the kind of experiment: Ambit binding screen. The settings on record: 10 μM. The protocol: To augment this we screened an additional 96 kinases at 10 μM in the Ambit binding screen to get a broader sense for the selectivity of this compound. […] Since minimal SAR optimizations have been made on this probe molecule it is believed that high selectivity for this class of inhibitors could easily be achieved by exploiting the bidentate binding character of this class.

The target in another assay is JNK3α1 (Homo sapiens, UniProt P53779). Nature of the assay: ATP competitive binding / mechanism of inhibition studies. The settings on record: eight concentrations of compound; p<0.05. Format: biochemical. The text has this: (A) Non-linear least squares fitting of the data using an equation for competitive inhibition at eight concentrations of compound 6. (B) Double reciprocal plots and linear regression of the data shown in A.
The detection method in the JNK3 enzyme assay allows for the detection of a compound that inhibits by a variety of mechanisms including: substrate-site binding, allosteric site binding, and ATP-competitive binding. […] However, if the inhibition of kinase activity by 6 was only through substrate site binding, its IC50 value in JNK3 activity assay should be similar to that in JIP displacement assay. […] One possible interaction besides JIP site binding was ATP hinge binding because the head indazole moiety is a well-known hinge binder.

For assay [6], the system named is c-jun phosphorylation in H9C2 and N2a cells. Nature of the assay: Western blot analysis of c-jun phosphorylation. Format: cell-based.
Description: as §2

Where [7] appears, read: Rattus norvegicus, H9c2, H9c2 cells.

Sequence of JNK1 (P45983 whole entry, the tested form may be a part): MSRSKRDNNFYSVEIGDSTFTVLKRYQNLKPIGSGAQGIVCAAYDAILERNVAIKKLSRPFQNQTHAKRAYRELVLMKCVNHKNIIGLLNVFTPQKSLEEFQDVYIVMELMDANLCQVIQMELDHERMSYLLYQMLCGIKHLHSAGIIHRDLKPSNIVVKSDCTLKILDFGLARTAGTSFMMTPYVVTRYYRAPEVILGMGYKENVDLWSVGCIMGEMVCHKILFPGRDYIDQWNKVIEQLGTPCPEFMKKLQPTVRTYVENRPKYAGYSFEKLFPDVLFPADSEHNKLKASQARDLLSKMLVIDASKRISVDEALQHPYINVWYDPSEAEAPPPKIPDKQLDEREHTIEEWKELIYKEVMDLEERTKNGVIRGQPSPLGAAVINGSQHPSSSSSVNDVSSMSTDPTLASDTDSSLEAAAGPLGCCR
T1 sequence (P53779 39-422 isoform P53779-2): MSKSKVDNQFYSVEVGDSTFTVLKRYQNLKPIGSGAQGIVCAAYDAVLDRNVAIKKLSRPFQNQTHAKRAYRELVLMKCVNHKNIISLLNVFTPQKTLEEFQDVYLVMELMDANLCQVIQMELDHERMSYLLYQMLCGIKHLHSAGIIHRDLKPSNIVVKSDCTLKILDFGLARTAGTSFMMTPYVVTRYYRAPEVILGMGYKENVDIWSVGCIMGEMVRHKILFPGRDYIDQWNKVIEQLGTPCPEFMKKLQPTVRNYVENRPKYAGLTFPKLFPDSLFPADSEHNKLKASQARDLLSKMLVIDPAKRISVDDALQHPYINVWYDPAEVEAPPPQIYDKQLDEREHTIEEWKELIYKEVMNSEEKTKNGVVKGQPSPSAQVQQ
Sequence of JNK3 (P53779 1-422 isoform P53779-2): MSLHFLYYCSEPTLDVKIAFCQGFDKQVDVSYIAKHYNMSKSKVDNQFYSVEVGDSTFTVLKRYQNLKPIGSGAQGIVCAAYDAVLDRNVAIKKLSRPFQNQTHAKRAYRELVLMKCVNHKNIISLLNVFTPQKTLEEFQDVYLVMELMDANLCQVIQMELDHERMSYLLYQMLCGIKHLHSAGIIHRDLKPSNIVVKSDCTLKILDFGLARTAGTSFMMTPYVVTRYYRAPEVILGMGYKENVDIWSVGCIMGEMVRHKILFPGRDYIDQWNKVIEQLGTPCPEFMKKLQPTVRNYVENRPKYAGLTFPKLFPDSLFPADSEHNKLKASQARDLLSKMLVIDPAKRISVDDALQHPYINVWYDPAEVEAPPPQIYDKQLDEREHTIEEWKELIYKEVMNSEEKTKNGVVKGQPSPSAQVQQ
Sequence of wild-type LRRK2 (Q5S007 whole entry): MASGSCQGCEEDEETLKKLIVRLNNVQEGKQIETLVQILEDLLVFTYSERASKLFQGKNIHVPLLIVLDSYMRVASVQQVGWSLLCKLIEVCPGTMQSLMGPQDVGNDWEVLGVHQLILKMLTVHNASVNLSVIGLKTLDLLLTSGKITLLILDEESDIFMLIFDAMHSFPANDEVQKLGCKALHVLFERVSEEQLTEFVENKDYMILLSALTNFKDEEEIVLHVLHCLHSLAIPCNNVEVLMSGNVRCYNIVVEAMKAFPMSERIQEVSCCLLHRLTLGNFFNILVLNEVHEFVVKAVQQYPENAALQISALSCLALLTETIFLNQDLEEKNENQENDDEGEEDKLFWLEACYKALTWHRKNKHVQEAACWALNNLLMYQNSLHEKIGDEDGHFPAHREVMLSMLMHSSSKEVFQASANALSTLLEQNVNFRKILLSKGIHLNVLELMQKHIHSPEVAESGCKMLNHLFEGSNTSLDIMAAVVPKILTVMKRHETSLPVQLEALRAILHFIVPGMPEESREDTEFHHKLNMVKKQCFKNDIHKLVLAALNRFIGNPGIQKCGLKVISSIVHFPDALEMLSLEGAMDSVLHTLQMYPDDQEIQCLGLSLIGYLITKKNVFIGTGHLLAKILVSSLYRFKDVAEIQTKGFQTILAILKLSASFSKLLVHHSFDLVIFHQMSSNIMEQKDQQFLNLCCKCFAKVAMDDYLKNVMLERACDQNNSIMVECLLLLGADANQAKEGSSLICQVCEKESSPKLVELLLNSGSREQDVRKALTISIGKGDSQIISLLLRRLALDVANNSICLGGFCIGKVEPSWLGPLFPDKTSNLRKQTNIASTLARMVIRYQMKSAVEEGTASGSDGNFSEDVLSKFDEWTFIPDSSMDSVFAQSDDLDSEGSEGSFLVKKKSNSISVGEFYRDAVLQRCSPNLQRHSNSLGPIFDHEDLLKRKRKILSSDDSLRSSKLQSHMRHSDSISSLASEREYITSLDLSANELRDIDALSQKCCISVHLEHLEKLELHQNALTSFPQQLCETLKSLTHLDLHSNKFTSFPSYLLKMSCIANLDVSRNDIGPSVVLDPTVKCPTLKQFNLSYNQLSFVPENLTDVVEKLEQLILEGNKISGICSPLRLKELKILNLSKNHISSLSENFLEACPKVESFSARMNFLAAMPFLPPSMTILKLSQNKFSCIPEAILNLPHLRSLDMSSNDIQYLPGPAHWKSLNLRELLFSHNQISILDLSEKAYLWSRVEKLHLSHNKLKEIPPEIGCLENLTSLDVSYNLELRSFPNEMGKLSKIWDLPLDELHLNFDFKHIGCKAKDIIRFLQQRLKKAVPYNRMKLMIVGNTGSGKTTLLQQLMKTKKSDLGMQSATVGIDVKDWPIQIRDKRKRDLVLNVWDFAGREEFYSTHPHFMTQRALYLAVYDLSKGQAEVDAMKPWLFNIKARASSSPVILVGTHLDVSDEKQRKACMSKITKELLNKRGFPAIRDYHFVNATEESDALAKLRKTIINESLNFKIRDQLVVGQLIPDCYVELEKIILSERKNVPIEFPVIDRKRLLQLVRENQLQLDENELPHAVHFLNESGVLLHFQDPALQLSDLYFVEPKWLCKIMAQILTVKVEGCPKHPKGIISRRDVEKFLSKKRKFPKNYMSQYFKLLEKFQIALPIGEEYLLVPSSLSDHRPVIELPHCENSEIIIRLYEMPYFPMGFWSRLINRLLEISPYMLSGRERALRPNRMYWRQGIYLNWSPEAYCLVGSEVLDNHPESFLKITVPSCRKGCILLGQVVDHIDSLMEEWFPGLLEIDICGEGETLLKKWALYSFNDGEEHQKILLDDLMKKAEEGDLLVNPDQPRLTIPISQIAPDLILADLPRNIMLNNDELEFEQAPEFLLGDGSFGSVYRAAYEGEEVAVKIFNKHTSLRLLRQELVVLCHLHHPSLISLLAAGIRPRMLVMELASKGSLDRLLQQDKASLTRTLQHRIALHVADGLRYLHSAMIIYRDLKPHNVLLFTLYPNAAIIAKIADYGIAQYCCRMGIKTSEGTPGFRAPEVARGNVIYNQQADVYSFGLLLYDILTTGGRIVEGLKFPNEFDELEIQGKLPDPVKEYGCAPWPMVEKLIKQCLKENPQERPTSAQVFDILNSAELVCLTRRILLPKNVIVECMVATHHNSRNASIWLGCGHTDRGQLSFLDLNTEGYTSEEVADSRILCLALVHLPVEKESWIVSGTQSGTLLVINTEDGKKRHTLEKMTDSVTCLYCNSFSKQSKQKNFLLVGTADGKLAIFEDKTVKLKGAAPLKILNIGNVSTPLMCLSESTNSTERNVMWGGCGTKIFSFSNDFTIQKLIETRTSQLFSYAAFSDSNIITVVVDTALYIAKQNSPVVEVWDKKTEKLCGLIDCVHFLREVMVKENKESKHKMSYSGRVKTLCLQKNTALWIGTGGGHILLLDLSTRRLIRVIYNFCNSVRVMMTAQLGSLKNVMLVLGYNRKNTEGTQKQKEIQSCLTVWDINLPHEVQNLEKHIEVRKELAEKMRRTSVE
Sequence of CLK1 (P49759 whole entry): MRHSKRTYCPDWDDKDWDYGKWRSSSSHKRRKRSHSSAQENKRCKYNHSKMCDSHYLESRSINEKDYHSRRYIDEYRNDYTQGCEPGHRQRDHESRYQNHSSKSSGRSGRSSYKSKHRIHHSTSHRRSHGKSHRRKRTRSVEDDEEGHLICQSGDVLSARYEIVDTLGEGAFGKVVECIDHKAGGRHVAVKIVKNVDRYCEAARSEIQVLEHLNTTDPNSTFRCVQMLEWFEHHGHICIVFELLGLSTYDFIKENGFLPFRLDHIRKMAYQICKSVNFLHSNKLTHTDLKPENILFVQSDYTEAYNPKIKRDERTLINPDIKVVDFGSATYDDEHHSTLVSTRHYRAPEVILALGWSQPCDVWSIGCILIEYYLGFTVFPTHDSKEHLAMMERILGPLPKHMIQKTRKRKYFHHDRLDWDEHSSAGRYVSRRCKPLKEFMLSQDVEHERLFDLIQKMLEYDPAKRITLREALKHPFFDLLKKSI
Sequence of LRRK2-G2019S (Q5S007 whole entry G2019S): as the sequence (Q5S007 whole entry) above, with G2019S counted along it
Sequence of JNK3α1 (P53779 1-422 isoform P53779-2): as the sequence (P53779 1-422 isoform P53779-2) above
Sequence of LRRK2 (Q5S007 whole entry): as the sequence (Q5S007 whole entry) above

In the case of `CC(C)CN(CC(=O)NCCCCNC(=O)c1ccc(-c2n[nH]c3ccccc23)cc1)C(=O)c1ccc2c(c1)OCCO2` [Compound 10], the IC50 at JNK3 is 65 nM; at JNK3 39-422 it was 363 ± 272 nM; at wild-type LRRK2 (LRRK2 form not stated, only hit in profiling against 18 kinases at 10 μM, read-out: LRRK2 IC50) it was 80 nM; in [1] (H9c2 cells), 1400 ± 340 nM; in assay [1] (setting [7]), around 1000 nM.
With `CC(C)CN(CC(=O)NCCCCNC(=O)c1ccc(-c2n[nH]c3ccccc23)cc1)C(=O)CNC(=O)c1cccc(Cl)c1` [Compound 12], the IC50 is 184 ± 38 nM at JNK3, 520 ± 170 nM on JNK3 39-422 and 19800 ± 7800 nM in [1] (setting [7]).
The matching figures for `CC(C)CN(CC(=O)NCCCCNC(=O)c1ccc(-c2n[nH]c3ccccc23)cc1)CC(C)C` [Compound 13]: 374 ± 227 nM, 1730 ± 635 nM and 9600 ± 3000 nM.
`CC(=O)N[C@@H](CC(C)C)C(=O)N[C@@H](CC(N)=O)C(=O)N[C@@H](CC(C)C)C(=O)NCC(=O)NCCCCNC(=O)c1ccc(-c2n[nH]c3ccccc23)cc1` [Compound 3, (S)—N1-((S)-1-((2-((4-(4-(1H-indazol-3-yl)benzamido)butyl)amino)-2-oxoethyl)amino)-4-methyl-1-oxopentan-2-yl)-2-((S)-2-acetamido-4-methylpentanamido)succinamide] (Ac-LNLG-X1): the IC50 on JNK3 came out at 157 ± 162 nM; at JNK1, 318 ± 11.9 nM; on JNK3 39-422, 620 nM.
For the compound `CC(=O)N[C@@H](CC(C)C)C(=O)N[C@@H](CC(N)=O)C(=O)N[C@@H](CC(C)C)C(=O)NCC(=O)NCC(=O)NCCCNC(=O)c1ccc(-c2n[nH]c3ccccc23)cc1` [Compound 1] (Ac-LNLGG-X2), the IC50 is 37.8 ± 11.8 nM at JNK3 and 760 nM on JNK3 39-422.
As to `CC(C)CN(CC(=O)NCCCCCCNC(=O)c1ccc(-c2n[nH]c3ccccc23)cc1)C(=O)CNC(=O)c1ccc2c(c1)OCCO2` [Compound 4, N-(2-((2-((6-(4-(1H-indazol-3-yl)benzamido)hexyl)amino)-2-oxoethyl)(isobutyl)amino)-2-oxoethyl)-2,3-dihydrobenzo[b][1,4]dioxine-6-carboxamide], the values for the half-maximal inhibitory concentration (IC50) against JNK3, on JNK1 and on JNK3 39-422 were 147 ± 51.6 nM, 685 ± 121 nM and 907 nM, respectively.
On to `COc1ccc2c(c1)CC(C(=O)N[C@@H](C)C(=O)N(CC(=O)NCCCCCCNC(=O)c1ccc(-c3n[nH]c4ccccc34)cc1)CC(C)C)CO2` (stereo partly drawn) [Compound 7, N—((S)-1-((2-((6-(4-(1H-indazol-3-yl)benzamido)hexyl)amino)-2-oxoethyl)(isobutyl)amino)-1-oxopropan-2-yl)-6-methoxychroman-3-carboxamide], for which the IC50 is 127 ± 30.3 nM on JNK3, 154 ± 37.1 nM at JNK1 and 1050 nM on JNK3 39-422.
Regarding `CC(C)C[C@H](NC(=O)[C@H](CC(N)=O)NC(=O)[C@@H](N)CC(C)C)C(=O)NCC(=O)NCC(=O)NCCCNC(=O)c1ccc(-c2n[nH]c3ccccc23)cc1` [Compound 2] (H-LNLGG-X2), the values for the IC50 on JNK3 and at JNK3 39-422 were 136 ± 35.9 nM and 624 nM, respectively.
Turning to `NC(=O)c1cccc(N)c1` [3-aminobenzamide], the “infarct size (IS)” value in assay [2] is 26±1.5 % of AAR.
For `COc1ccc2c(c1)CC(C(=O)NCC(=O)N(CC(=O)NCCCCCCNC(=O)c1ccc3[nH]ncc3c1)CC(C)C)CO2` (centres unmarked) [Compound 8, N-(6-(2-(N-isobutyl-2-(6-methoxychroman-3-carboxamido)acetamido)acetamido)hexyl)-1H-indazole-5-carboxamide], at JNK3, the IC50 was 3150 nM.
Turning to `COc1ccc2c(c1)CC(C(=O)N(CC(=O)NCCCCNC(=O)c1ccc(-c3n[nH]c4ccccc34)cc1)CC(C)C)CO2` (centres unmarked) [Compound 9], the figures for the IC50 (on JNK3; at JNK3 39-422; in [1] (setting [7])) were 246 ± 227 nM, 300 ± 187 nM and 80400 ± 41400 nM, respectively.
In the case of `CC(C)CN(CCCCCCNC(=O)c1ccc(-c2n[nH]c3ccccc23)cc1)C(=O)c1ccc2c(c1)OCCO2` [Compound 11], the IC50 was found to be 86 ± 37 nM against JNK3 and 781 ± 7 nM on JNK3 39-422.
On to `COc1ccc2c(c1)CC(C(=O)NCC(=O)N(CC(=O)NCCCCCCNC(=O)c1ccc(-c3n[nH]c4ccccc34)cc1)CC(C)C)CO2` (centres unmarked) [Compound 6, N-(2-((2-((6-(4-(1H-indazol-3-yl)benzamido)hexyl)amino)-2-oxoethyl)(isobutyl)amino)-2-oxoethyl)-6-methoxychroman-3-carboxamide], for which the IC50 is 12 nM and 11.6 nM on JNK3; 109 ± 6.1 nM against JNK1; 336 nM and ~336 nM on JNK3 39-422; 118 nM and ~100 nM on wild-type LRRK2 (read-out: wild-type LRRK2 IC50); 99 nM and ~100 nM against LRRK2-G2019S; 2800 ± 500 nM in [1] (setting [7]). This compound also showed an IC50 at CLK1 (inferred from 50% inhibition at 10 μM) of around 10000 nM. For the same compound, the “concentration from which c-Jun phosphorylation began to be inhibited significantly” value in assay [1] (H9C2 cells) is around 100 nM. The ROS levels entry in assay [3] is “reduced the ROS levels in a statistically significant manner”. In [4], the “protection against decrease in MMP” value is “returned MMP dissipation to untreated levels”. The compound further had a viability at 10 µM in assay [5] above 95%. Besides, the “inhibition of JNKs” value in the assay on JNKs was around 100%. For the same compound, the inhibition at 10 µM against LRRK2 stood at 94%; on CLK1 (10 μM inhibitor concentration), 50%. In addition, the “number of the 96 kinases with greater than 90% binding” value in the assay on 96 kinases is given as “six”. Also, the “share of kinases inhibited” value in the assay on 96 kinases is around 5%. Further, at JNK3α1, the “mechanism of inhibition versus ATP” value is listed as “competitive inhibitor of ATP”. Moreover, the “c-jun phosphorylation by Western blot” value in [6] was “inhibition of the c-jun phorphorylation”.
`CC(C)CN(CC(=O)NCCCCCCNC(=O)c1ccc(-c2n[nH]c3ccccc23)cc1)C(=O)CNC(=O)C1COc2ccccc2O1` (centres unmarked) [Compound 5, N-(2-((2-((6-(4-(1H-indazol-3-yl)benzamido)hexyl)amino)-2-oxoethyl)(isobutyl)amino)-2-oxoethyl)-2,3-dihydrobenzo[b][1,4]dioxine-2-carboxamide]: the half-maximal inhibitory concentration (IC50) at JNK3 was determined as 63.4 ± 10.4 nM; against JNK1, 164 ± 21.7 nM; at JNK3 39-422, 363 nM; in assay [1] (setting [7]), 37400 ± 22300 nM.
